The values below come from patent US8722903B2, “Indazole derivatives for the treatment of HSP9O-induced diseases” (Merck Patent GmbH, priority 2006, dated 2014).

Where only a bound is given, the exact number is not on record here.

This assay deals with T1, Recombinant human HSP90α (Homo sapiens, UniProt P07900).
T1 construct: host or cells: E. coli
The experiment in a line: Radioligand filter binding test: competitive inhibition of [3H]17AAG binding to HSP90. The following applies: [3H]17AAG 0.08 μM, HSP90 1.5 μg/assay, 22° C., 30 min. The protocol: In the specific case, a radioligand filter binding test is used. The radioligand used here is tritium-labelled 17-allylaminogeldanamycin, [3H]17AAG, This filter binding test allows a targeted search for inhibitors which interfere with the ATP binding site.
Recombinant human HSP90α (E. coli expressed, 95% purity);
HEPES filter buffer (50 mM HEPES, pH 7.0, 5 mM MgCl2, BSA 0.01%) Multiscreen FB (1 μm) filter plate (Millipore, MAFBNOB 50).
The 96-well microtitre filter plates are firstly irrigated and coated with 0.1% of polyethylenimine.
The test is carried out under the following conditions:
Reaction temperature 22° C.
Reaction time: 30 min., shaking at 800 rpm
50 mM HEPES HCl, pH 7.0, 5 mM MgCl2, 0.01% (w/v) of BSA
At the end of the reaction, the supernatant in the filter plate is removed by suction with the aid of a vacuum manifold (Multiscreen Separation System, Millipore), and the filter is washed twice.
The filter plates are then measured in a beta counter (Microbeta, Wallac) with scintillator (Microscint 20, Packard).
“% of control” is determined from the “counts per minutes” values, and the IC-50 value of a compound is calculated therefrom.
With `COCCN(C)C(=O)c1cc2c(Cc3cccc(Cl)c3)n[nH]c2cc1O` [Compound A41, 5-[N-(2-Methoxyethyl)-N-methylaminocarbonyl]-3-(3-chlorobenzyl)-6-hydroxy-1H-indazole], the IC50 lay within 1 to 10 µM.

Take `CCCN(C)C(=O)c1cc2c(Cc3ccc(C)c(C)c3)n[nH]c2cc1O` [Compound A73, 5-(N-Propyl-N-methylaminocarbonyl)-3-(3,4-dimethylbenzyl)-6-hydroxy-1H-indazole]: the half-maximal inhibitory concentration (IC50) was 1 to 10 µM.

In the case of `CN(Cc1cccc(Br)c1)C(=O)c1cc2c(Cc3ccccc3)n[nH]c2cc1O` [Compound A26, 5-[N-(3-Bromobenzyl)-N-methylaminocarbonyl]-3-benzyl-6-hydroxy-1H-indazole], the half-inhibitory concentration (IC50) lay in the range of 1 to 10 µM.

As to `COCCN(C)C(=O)c1cc2c(Cc3ccccc3)n[nH]c2cc1O` [Compound A7, 5-[N-(2-Methoxyethyl)-N-methylaminocarbonyl]-3-benzyl-6-hydroxy-1H-indazole], the IC50 lay in the range of 1 to 10 µM.

With `CCCCN(C)C(=O)c1cc2c(Cc3cccc(Cl)c3)n[nH]c2cc1O` [Compound A39, 5-(N-Butyl-N-methylaminocarbonyl)-3-(3-chlorobenzyl)-6-hydroxy-1H-indazole], the IC50 lay within 0.01 to 1 µM.

As for `CN(Cc1cccc(C(F)(F)F)c1)C(=O)c1cc2c(Cc3ccccc3)n[nH]c2cc1O` [Compound A29, 5-[N-(3-Trifluoromethylbenzyl)-N-methylaminocarbonyl]-3-benzyl-6-hydroxy-1H-indazole], the IC50 fell in the range of 1 to 10 µM.

Regarding `COc1ccc(C)cc1CN(C)C(=O)c1cc2c(Cc3ccccc3)n[nH]c2cc1O` [Compound A20, 5-[N-(2-Methoxy-5-methylbenzyl)-N-methylaminocarbonyl]-3-benzyl-6-hydroxy-1H-indazole], the IC50 fell in the range of 1 to 10 µM.

For `Cc1ccc(N(C)C(=O)c2cc3c(CC4CCCC4)n[nH]c3cc2O)cc1` [Compound A256, 5-[N-(4-Methylphenyl)-N-methylaminocarbonyl]-3-cyclopentylmethyl-6-hydroxy-1H-indazole], the IC50 is 0.01 to 1 µM.

In the case of `COCCN(C)C(=O)c1cc2c(Cc3ccccc3C)n[nH]c2cc1O` [Compound A45], the IC50 is greater than 10 µM.

Turning to `COCCN(C)C(=O)c1cc2c(Cc3cccc(C)c3)n[nH]c2cc1O` [Compound A37, 5-[N-(2-Methoxyethyl)-N-methylaminocarbonyl]-3-(3-methylbenzyl)-6-hydroxy-1H-indazole], the IC50 lay in the range of 1 to 10 µM.

Regarding `COc1ccc(N(C)C(=O)c2cc3c(Cc4cccc(OC)c4)n[nH]c3cc2O)cc1` [Compound A160, 5-[N-(4-Methoxyphenyl)-N-methylaminocarbonyl]-3-(3-methoxybenzyl)-6-hydroxy-1H-indazole], the IC50 fell in the range of 0.01 to 1 µM.

For “5-[N-(3-Methoxybenzyl)-N-methylaminocarbonyl]-3-benzyl-6-hydroxy-1H-indazole [Compound A27]”, the IC50 is 0.01 to 1 µM.

With `COc1cccc(CN(C)C(=O)c2cc3c(Cc4ccccc4)n[nH]c3cc2O)c1OC` [Compound A23, 5-[N-(2,3-Dimethoxybenzyl)-N-methylaminocarbonyl]-3-benzyl-6-hydroxy-1H-indazole], the IC50 was in the range of 0.01 to 1 µM.

Turning to `CCCN(C)C(=O)c1cc2c(CCc3ccccc3)n[nH]c2cc1O` [Compound A182, 5-(N-Propyl-N-methylaminocarbonyl)-3-phenethyl-6-hydroxy-1H-indazole], the IC50 lay within 1 to 10 µM.

For `CN(Cc1ccccc1)C(=O)c1cc2c(CCc3ccccc3)n[nH]c2cc1O` [Compound A181, 5-(N-Benzyl-N-methylaminocarbonyl)-3-phenethyl-6-hydroxy-1H-indazole], the IC50 lay in the range of 0.01 to 1 µM.

As to `CC(=O)N1CCc2cc(N(C)C(=O)c3cc4c(Cc5cccc(C)c5)n[nH]c4cc3O)ccc21` [Compound A157, 5-[N-(1-Acetyl-2,3-dihydro-1H-indol-5-yl)-N-methylaminocarbonyl]-3-(3-methylbenzyl)-6-hydroxy-1H-indazole], the IC50 is 0.01 to 1 µM.

For the compound `Cc1cccc(Cc2n[nH]c3cc(O)c(C(=O)N(C)c4cccc(OC(F)(F)F)c4)cc23)c1` [Compound A154, 5-[N-(3-Trifluoromethoxyphenyl)-N-methylaminocarbonyl]-3-(3-methylbenzyl)-6-hydroxy-1H-indazole], the IC50 lay within 0.01 to 1 µM.

For the compound `COc1ccc(N(C)C(=O)c2cc3c(Cc4cccc(C)c4)n[nH]c3cc2O)cc1OC` [Compound A145, 5-[N-(3,4-Dimethoxyphenyl)-N-methylaminocarbonyl]-3-(3-methylbenzyl)-6-hydroxy-1H-indazole], the IC50 is 0.01 to 1 µM.

Take `CCCCN(C)C(=O)c1cc2c(Cc3ccc(C)cc3)n[nH]c2cc1O` [Compound A64, 5-(N-Butyl-N-methylaminocarbonyl)-3-(4-methylbenzyl)-6-hydroxy-1H-indazole]: the IC50 fell in the range of 1 to 10 µM.

As for `CCc1ccc(Cc2n[nH]c3cc(O)c(C(=O)N(C)Cc4ccccc4)cc23)cc1` [Compound A71, 5-(N-Benzyl-N-methylaminocarbonyl)-3-(4-ethylbenzyl)-6-hydroxy-1H-indazole], the IC50 lay within 1 to 10 µM.

Regarding `CN(C(=O)c1cc2c(CC3CCCC3)n[nH]c2cc1O)c1ccc2c(c1)OCO2` [Compound A260, 5-[N-(Benzo-1,3-dioxol-5-yl)-N-methylaminocarbonyl]-3-cyclopentylmethyl-6-hydroxy-1H-indazole], the IC50 is 0.01 to 1 µM.

In the case of `Cc1ccccc1Cc1n[nH]c2cc(O)c(C(=O)N(C)Cc3ccccc3)cc12` [Compound A44, 5-(N-Benzyl-N-methylaminocarbonyl)-3-(2-methylbenzyl)-6-hydroxy-1H-indazole], the half-inhibitory concentration (IC50) is 1 to 10 µM.

As for `CCCN(C)C(=O)c1cc2c(Cc3cc(C)cc(F)c3)n[nH]c2cc1O` [Compound A52, 5-(N-Propyl-N-methylaminocarbonyl)-3-(3-fluoro-5-methylbenzyl)-6-hydroxy-1H-indazole], the concentration for half-maximal inhibition (IC50) lay in the range of 1 to 10 µM.

`Cc1cccc(Cc2n[nH]c3cc(O)c(C(=O)N(C)c4ccc(CN5CCOCC5)cc4)cc23)c1` [Compound A191, 5-[N-(4-Morpholin-4-ylmethylphenyl)-N-methylaminocarbonyl]-3-(3-methylbenzyl)-6-hydroxy-1H-indazole]: the IC50 was in the range of 0.01 to 1 µM.

Take `COc1cccc(N(C)C(=O)c2cc3c(CC4CCCC4)n[nH]c3cc2O)c1` [Compound A257, 5-[N-(3-Methoxyphenyl)-N-methylaminocarbonyl]-3-cyclopentylmethyl-6-hydroxy-1H-indazole]: the IC50 lay within 0.01 to 1 µM.

Consider `COc1cccc(Cc2n[nH]c3cc(O)c(C(=O)N(C)c4ccc(CNS(C)(=O)=O)cc4)cc23)c1` [Compound A162, 5-[N-(4-Methylsulfonylaminomethylphenyl)-N-methylaminocarbonyl]-3-(3-methoxybenzyl)-6-hydroxy-1H-indazole], for which the IC50 lay within 0.01 to 1 µM.

As to `Cc1cccc(Cc2n[nH]c3cc(O)c(C(=O)N(C)C4CCCCC4)cc23)c1` [Compound A195, 5-(N-Cyclohexyl-N-methylaminocarbonyl)-3-(3-methylbenzyl)-6-hydroxy-1H-indazole], the IC50 lay within 1 to 10 µM.

For `CN(Cc1ccccc1)C(=O)c1cc2c(Cc3cccc(Cl)c3)n[nH]c2cc1O` [Compound A40, 5-(N-Benzyl-N-methylaminocarbonyl)-3-(3-chlorobenzyl)-6-hydroxy-1H-indazole], the IC50 lay in the range of 0.01 to 1 µM.

Consider `CCCc1n[nH]c2cc(O)c(C(=O)N(C)c3ccc(OC)c(OC)c3)cc12` [Compound A174, 5-[N-(3,4-Dimethoxyphenyl)-N-methylaminocarbonyl]-3-propyl-6-hydroxy-1H-indazole], for which the IC50 lay in the range of 0.01 to 1 µM.

Regarding `CCCN(C)C(=O)c1cc2c(Cc3ccccc3Cl)n[nH]c2cc1O` [Compound A35, 5-(N-Propyl-N-methylaminocarbonyl)-3-(2-chlorobenzyl)-6-hydroxy-1H-indazole], the IC50 lay in the range of 1 to 10 µM.

For the compound `CCc1ccc(CN(C)C(=O)c2cc3c(Cc4ccccc4)n[nH]c3cc2O)cc1` [Compound A28, 5-[N-(4-Ethylbenzyl)-N-methylaminocarbonyl]-3-benzyl-6-hydroxy-1H-indazole], the IC50 is 0.01 to 1 µM.

For `CCCN(C)C(=O)c1cc2c(Cc3ccccc3)n[nH]c2cc1O` [Compound A4, 5-(N-propyl-N-methylaminocarbonyl)-3-benzyl-6-hydroxy-1H-indazole], the IC50 lay in the range of 1 to 10 µM.

As for `CCCN(C)C(=O)c1cc2c(Cc3cccc(C)c3)n[nH]c2cc1O` [Compound A38, 5-(N-Propyl-N-methylaminocarbonyl)-3-(3-methylbenzyl)-6-hydroxy-1H-indazole], the IC50 was in the range of 1 to 10 µM.

Regarding `CN(Cc1cccc2c1OCO2)C(=O)c1cc2c(Cc3ccccc3)n[nH]c2cc1O` [Compound A30, 5-[N-(Benzo-1,3-dioxol-4-ylmethyl)-N-methylaminocarbonyl]-3-benzyl-6-hydroxy-1H-indazole], the IC50 was in the range of 1 to 10 µM.

For the compound `COc1ccc(Cl)cc1CN(C)C(=O)c1cc2c(Cc3ccccc3)n[nH]c2cc1O` [Compound A31, 5-[N-(3-Chloro-6-methoxybenzyl)-N-methylaminocarbonyl]-3-benzyl-6-hydroxy-1H-indazole], the IC50 lay in the range of 1 to 10 µM.

With `CN(Cc1ccccc1)C(=O)c1cc2c(Cc3ccccc3)n[nH]c2cc1O` [Compound A6, 5-(N-Benzyl-N-methylaminocarbonyl)-3-benzyl-6-hydroxy-1H-indazole], the concentration for half-maximal inhibition (IC50) lay within 0.01 to 1 µM.

As to `CCCc1n[nH]c2cc(O)c(C(=O)N(C)c3ccc4c(c3)OCO4)cc12` [Compound A175, 5-[N-(Benzo-1,3-dioxol-5-yl)-N-methylaminocarbonyl]-3-propyl-6-hydroxy-1H-indazole], the IC50 fell in the range of 0.01 to 1 µM.

By IC50 is commonly meant the point on the concentration scale where inhibition reaches its midpoint.
